Laboratory results: publication PMC7753147, “High-throughput determination of protein affinities using unmodified peptide libraries in nanomolar scale” (iScience, 2020)

How the values were obtained:
[1] = tested on: native geph; assay: µSPOT peptide microarray binding assay with native geph from mouse brain lysate; conditions: normalized to most prominent spot, n = 2 array-internal duplicate
[2] = tested on: gephE; assay: µSPOT peptide microarray binding assay with recombinant gephE; conditions: normalized to most prominent spot, n = 2 array-internal duplicate
[3] = overlapping GABAAR α3 peptide library on µSPOT array, 6% mouse brain lysate
[4] = overlapping GABAAR α3 peptide library on µSPOT array, 20 nM gephE
[5] = overlapping GlyR β peptide library on µSPOT array, 3% mouse brain lysate
[6] = overlapping GlyR β peptide library on µSPOT array, 50 nM gephE, anti-gephyrin 3B11/HRP chemiluminescence

Sequence | Native geph Binding Intensity [norm.] [1, 3] | gephE Binding Intensity [norm.] [2, 4] | Native geph Binding Intensity [norm.] [1, 5] | gephE Binding Intensity [norm.] [2, 6]
YVQDSPAETKTYNSVSKVDK [GABAAR α3 residues 438-457, µSpot library] | 0.058 norm. | 0.073 norm. | – | –
KDTEFSTISKSAAAPSASST [GABAAR α3 residues 408-427, µSpot library] | 0.136 norm. | 0.020 norm. | – | –
NLAKDTEFSTISKSAAAPSA [GABAAR α3 residues 405-424, µSpot library] | 0.122 norm. | 0.029 norm. | – | –
STPTAIASPKATYVQDSPAE [GABAAR α3 residues 426-445, µSpot library] | 0.067 norm. | 0.019 norm. | – | –
SASSTPTAIASPKATYVQDS [GABAAR α3 residues 423-442, µSpot library] | 0.075 norm. | 0.022 norm. | – | –
ADGKGGNAAKKNTVNGTGTP [Glycine receptor subunit beta_009] | – | – | 0.067 norm. | 0.015 norm.
TTFNIVGTTYPINLAKDTEF [GABAAR α3 residues 393-412, µSpot library] | 0.538 norm. | 0.457 norm. | – | –
LEMKKKTPAAPTKKNTTFNI [GABAAR α3 residues 378-397, µSpot library] | 0.085 norm. | 0.059 norm. | – | –
KRVEAEKARIAKAEQADGKG [Glycine receptor subunit beta_004] | – | – | 0.117 norm. | 0.052 norm.
ASPKATYVQDSPAETKTYNS [GABAAR α3 residues 432-451, µSpot library] | 0.050 norm. | 0.020 norm. | – | –
NNPKRVEAEKARIAKAEQAD [Glycine receptor subunit beta_003, GlyR β residues 355-374] | – | – | 0.109 norm. | 0.023 norm.
KKVPEALEMKKKTPAAPTKK [GABAAR α3 residues 372-391, µSpot library] | 0.081 norm. | 0.038 norm. | – | –
AAPSASSTPTAIASPKATYV [GABAAR α3 residues 420-439, µSpot library] | 0.080 norm. | 0.038 norm. | – | –
APTKKNTTFNIVGTTYPINL [GABAAR α3 residues 387-406, µSpot library] | 0.767 norm. | 1.000 norm. | – | –
YPINLAKDTEFSTISKSAAA [GABAAR α3 residues 402-421, µSpot library] | 0.114 norm. | 0.039 norm. | – | –
KSAAAPSASSTPTAIASPKA [GABAAR α3 residues 417-436, µSpot library] | 0.103 norm. | 0.030 norm. | – | –
AEQADGKGGNAAKKNTVNGT [Glycine receptor subunit beta_008, GlyR β residues 370-389] | – | – | 0.065 norm. | 0.023 norm.
NIVGTTYPINLAKDTEFSTI [GABAAR α3 residues 396-415, µSpot library] | 0.114 norm. | 0.044 norm. | – | –
PEALEMKKKTPAAPTKKNTT [GABAAR α3 residues 375-394, µSpot library] | 0.071 norm. | 0.038 norm. | – | –
EAEKARIAKAEQADGKGGNA [Glycine receptor subunit beta_005, GlyR β residues 361-380] | – | – | 0.113 norm. | 0.024 norm.
KKKTPAAPTKKNTTFNIVGT [GABAAR α3 residues 381-400, µSpot library] | 0.115 norm. | 0.053 norm. | – | –
GTTYPINLAKDTEFSTISKS [GABAAR α3 residues 399-418, µSpot library] | 0.098 norm. | 0.030 norm. | – | –
VMLNNPKRVEAEKARIAKAE [Glycine receptor subunit beta_002, GlyR β residues 352-371] | – | – | 0.082 norm. | 0.010 norm.
TAIASPKATYVQDSPAETKT [GABAAR α3 residues 429-448, µSpot library] | 0.060 norm. | 0.018 norm. | – | –
IAKAEQADGKGGNAAKKNTV [Glycine receptor subunit beta_007] | – | – | 0.066 norm. | 0.025 norm.
KGGNAAKKNTVNGTGTPVHI [Glycine receptor subunit beta_010] | – | – | 0.077 norm. | 0.024 norm.
EFSTISKSAAAPSASSTPTA [GABAAR α3 residues 411-430, µSpot library] | 0.127 norm. | 0.028 norm. | – | –

Now from value to sequence:

Native geph Binding Intensity [norm.] [1, 3] | gephE Binding Intensity [norm.] [2, 4] | Native geph Binding Intensity [norm.] [1, 5] | gephE Binding Intensity [norm.] [2, 6] | Sequence
– | – | 0.075 norm. | 0.009 norm. | IEVNNGLGKPQAKNKKPPPA [Glycine receptor subunit beta_032, GlyR β residues 442-461]
– | – | 0.093 norm. | 0.049 norm. | DCYGKPIEVNNGLGKPQAKN [Glycine receptor subunit beta_030, GlyR β residues 436-455]
– | – | 0.069 norm. | 0.036 norm. | GKPIEVNNGLGKPQAKNKKP [Glycine receptor subunit beta_031, GlyR β residues 439-458]
– | – | 0.379 norm. | 0.645 norm. | CTSKSDLRSNDFSIVGSLPR [Glycine receptor subunit beta_021, GlyR β residues 409-428]
– | – | 0.301 norm. | 0.291 norm. | SIVGSLPRDFELSNYDCYGK [Glycine receptor subunit beta_025, GlyR β residues 421-440]
– | – | 0.309 norm. | 0.393 norm. | KKVCTSKSDLRSNDFSIVGS [Glycine receptor subunit beta_020, GlyR β residues 406-425]
– | – | 0.134 norm. | 0.132 norm. | GSLPRDFELSNYDCYGKPIE [Glycine receptor subunit beta_026, GlyR β residues 424-443]
– | – | 0.041 norm. | 0.055 norm. | NNGLGKPQAKNKKPPPAKPV [Glycine receptor subunit beta_033, GlyR β residues 445-464]
– | – | 0.204 norm. | 0.216 norm. | SNYDCYGKPIEVNNGLGKPQ [Glycine receptor subunit beta_029, GlyR β residues 433-452]
– | – | 0.180 norm. | 0.112 norm. | FELSNYDCYGKPIEVNNGLG [Glycine receptor subunit beta_028, GlyR β residues 430-449]
– | – | 0.089 norm. | 0.033 norm. | TRCKKVCTSKSDLRSNDFSI [Glycine receptor subunit beta_019, GlyR β residues 403-422]
– | – | 0.060 norm. | 0.013 norm. | TPVHISTLQVGETRCKKVCT [Glycine receptor subunit beta_015, GlyR β residues 391-410]
– | – | 0.561 norm. | 0.599 norm. | NDFSIVGSLPRDFELSNYDC [Glycine receptor subunit beta_024, GlyR β residues 418-437]
– | – | 0.075 norm. | 0.037 norm. | KPPPAKPVIPTAAKRIDL [Glycine receptor subunit beta_037, GlyR β residues 457-474]
– | – | 0.074 norm. | 0.011 norm. | VGETRCKKVCTSKSDLRSND [Glycine receptor subunit beta_018, GlyR β residues 400-419]
0.033 norm. | 0.049 norm. | – | – | TKRSWAWEGKKVPEALEMKK
– | – | 0.042 norm. | 0.042 norm. | HISTLQVGETRCKKVCTSKS [Glycine receptor subunit beta_016, GlyR β residues 394-413]
– | – | 0.085 norm. | 0.023 norm. | KKNTVNGTGTPVHISTLQVG [Glycine receptor subunit beta_012]
– | – | 0.068 norm. | 0.016 norm. | KNKKPPPAKPVIPTAAKRID [Glycine receptor subunit beta_036, GlyR β residues 454-473]
– | – | 0.077 norm. | 0.011 norm. | NAAKKNTVNGTGTPVHISTL [Glycine receptor subunit beta_011, GlyR β residues 379-398]
– | – | 0.061 norm. | 0.022 norm. | LGKPQAKNKKPPPAKPVIPT [Glycine receptor subunit beta_034, GlyR β residues 448-467]
– | – | 0.054 norm. | 0.016 norm. | TLQVGETRCKKVCTSKSDLR [Glycine receptor subunit beta_017, GlyR β residues 397-416]
– | – | 0.087 norm. | 0.008 norm. | TVNGTGTPVHISTLQVGETR [Glycine receptor subunit beta_013]
